In data set [1] the test system is SARS-CoV (Urbani). Also on record: species or system BALB/c mice. As to conditions: mouse, in vivo.
In data set [2] the test system is SARS-CoV, strain Urbani. Description: microbe, parasite or virus in culture. Format: cell-based. Particulars: Severe acute respiratory syndrome coronavirus; for IC50: Vero 76, read-out: NR assay IC50.
A short description of data set [3]: in vivo. Particulars: BALB/c, mouse.
For data set [4], the system named is SARS-CoV, strain Urbani. The data set can be described thus: microbe, parasite or virus in culture. Format: cell-based, Severe acute respiratory syndrome coronavirus.
The nature of data set [5]: in vitro. Particulars: African green monkey.
In data set [6] the test system is cytokines in lung homogenates. Also on record: species or system BALB/c mice. Particulars: mouse, in vivo.
Data set [7] relates to Vero 76 cells. Particulars: African green monkey.
In data set [8] the test system is SARS-CoV. As to conditions: cited from earlier work.
A short description of data set [9]: in vitro. Particulars: African green monkey, NR assay CC50.
Setting [10] is: Severe acute respiratory syndrome coronavirus, Vero 76, read-out: Virus yield reduction assay IC90.

Each structure is given as a SMILES string. Values joined by “and” are separate entries in the source; they are usually repeats but may differ in a detail not shown here. Equal values may be shown once. Read-outs that look alike come from different tables or passages of the source.

For orientation: IC50 means the concentration that inhibits the measured activity by half. Usually IC90 stands for the point of the concentration-response curve where the effect stands at 90%. As usually defined, the EC50 is the concentration needed to bring the measured effect to its halfway point. As usually defined, the EC90 is the concentration needed for an effect of 90%.

As for `C#Cc1c(C(N)=O)ncn1[C@@H]1O[C@H](CO)[C@@H](O)[C@H]1O` [EICAR, 5-ethynyl-1-β-D-ribofuranosylimidazole-4-carboxamide], in [1], the “Virus titer ± S.D., Day 3” value is 5.5 ± 0.5 log10 CCID50/g and 5.3 ± 0.3 log10 CCID50/g; the “Virus titer ± S.D., Day 7” value came to 0 log10 CCID50/g. Moreover, the IC50 in data set [2] came out at 28 µM. The MTD in data set [3] is 75 mg/kg. In addition, in [4] (setting [10]), the IC90 was more than 40 µM.
With `COc1c(C)c2c(c(O)c1C/C=C(\C)CCC(=O)O)C(=O)OC2` [MPA, mycophenolic acid], in data set [1], the “Virus titer ± S.D., Day 3” value was 5.5 ± 0.2 log10 CCID50/g and 5.3 ± 0.5 log10 CCID50/g; the “Virus titer ± S.D., Day 7” value is listed as 0 log10 CCID50/g. In addition, the IC50 in data set [2] is more than 30 µM. Moreover, in [3], the MTD stood at 75 mg/kg.
Turning to `NC(=O)c1ncn([C@@H]2O[C@H](CO)[C@@H](O)[C@H]2O)c1O` [Mizoribine, mizoribine], in data set [1], the “Virus titer ± S.D., Day 3” value was 4.9 ± 0.3 log10 CCID50/g and 4.7 ± 0.6 log10 CCID50/g; the “Virus titer ± S.D., Day 7” value stood at 0 log10 CCID50/g. Moreover, in data set [2], the IC50 was more than 40 µM. The molecule further gave an MTD in data set [3] of 25 mg/kg.
In the case of `NC(=O)c1ncn([C@@H]2O[C@H](COP(=O)(O)O)[C@@H](O)[C@H]2O)n1` [Ribavirin monophosphate], in data set [2], the IC50 is more than 30 µM.
On to `NC(=O)c1ncn([C@@H]2O[C@H](CO)[C@@H](O)[C@H]2O)n1` [Ribavirin, ribavirin], for which the “Virus in the lungs of mice sacrificed at day 7” value in [1] is on record as “virus was not detected”. Further, the Virus titer in data set [1] (75 mg/kg) came to 0 log10 CCID50/g; in data set [1] (ip, 20 mg/kg) it was 0 log10 CCID50/g. The EC50 in [2] (Vero 76, read-out: EC50 by neutral red uptake assay, n = 4) was determined as 270 ± 50 µM. For the same molecule, the IC50 was 320 µM in [2] and 2 to 60 µg/mL in data set [8]. The CC50 came to 283 µM in data set [5] and 402 µM in data set [9]. In [6], the “GM-CSF level in lung homogenate” value is 7.9 ± 1.9 pg/mL and 10.7 ± 0.9 pg/mL and 7.9 ± 0.5 pg/mL and 15.7 ± 4.2 pg/mL. In addition, in data set [6], the “IL-4 level in lung homogenate” value was 5.9 ± 3.5 pg/mL and 6.3 ± 0.3 pg/mL and 4.9 ± 0.9 pg/mL and 7.3 ± 0.5 pg/mL. Also, the “IL-5 level in lung homogenate” value in data set [6] was 25.6 ± 2.0 pg/mL and 34.2 ± 2.1 pg/mL and 19.8 ± 1.7 pg/mL and 33.4 ± 0.4 pg/mL. In addition, the “IL-9 level in lung homogenate” value in data set [6] was 134.2 ± 39.3 pg/mL and 140.9 ± 6.7 pg/mL and 101.5 ± 25.7 pg/mL and 126.3 ± 67.6 pg/mL. Moreover, the EC90 in data set [4] (Severe acute respiratory syndrome coronavirus, Caco-2, read-out: EC90 by virus yield reduction assay) was determined as 4100 µM; in data set [4] (Severe acute respiratory syndrome coronavirus, MA104, read-out: EC90 by virus yield reduction assay), 225 µM. The IC90 in data set [4] (setting [10]) is 560 µM; in data set [4] (read-out: Virus yield reduction assay IC90) it was 590 µM. In addition, the “average CC50” value in data set [7] is approximately 1685 µg/mL.
On to `N=C(N)c1ncn([C@@H]2O[C@H](CO)[C@@H](O)[C@H]2O)n1` [Viramidine, viramidine], for which the IC50 in data set [2] was more than 410 µM.

(Values after article PMC7114261 (Antiviral Research, 2006).)
